In brackets after ≈: the same amount, converted by molar mass.
Columns and labels:
[1] = system: Staphylococcus aureus (29213); assay: MIC, NCCLS broth microdilution; type: cell-based; conditions: Staphylococcus aureus (29213)
[2] = system: Bacillus cereus (11778); assay: MIC, NCCLS broth microdilution; type: cell-based
[3] = system: Candida albicans (38247) (Polyene resistant); assay: MIC, antifungal assay; type: cell-based
[4] = system: Esherichia coli (25922); assay: MIC, NCCLS broth microdilution; type: cell-based, Escherichia coli; conditions: Escherichia coli (25922)
[5] = system: Micrococcus luteus (381); assay: MIC, NCCLS broth microdilution; type: cell-based
[6] = system: Enterococcus faecalis (29212); assay: MIC, NCCLS broth microdilution; type: cell-based; conditions: Enterococcus faecalis (29212)
[7] = system: Pseudomona aeruginosa (27853); assay: MIC, NCCLS broth microdilution; type: cell-based; conditions: Pseudomona aeruginosa (27853)
[8] = system: Streptococcus pneumoniae (51422) (multiple drug resistant); assay: MIC, NCCLS broth microdilution; type: cell-based
[9] = system: Staphylococcus epidermidis (12228); assay: MIC, NCCLS broth microdilution; type: cell-based; conditions: Staphylococcus epidermidis (12228)
[10] = system: Corynebacterium Group A (49676); assay: MIC, NCCLS broth microdilution; type: cell-based; conditions: Corynebacterium Group A (49676)
[11] = system: Streptococcus pneumoniae (49619); assay: MIC, NCCLS broth microdilution; type: cell-based; conditions: Streptococcus pneumoniae (49619)
[12] = system: Streptococcus pyogenes (49339); assay: MIC, NCCLS broth microdilution; type: cell-based; conditions: Streptococcus pyogenes (49339); Table Ia: Streptococcus Group A(49339)
[13] = system: Enterococcus faecium (51559) (vacomycin resistant); assay: MIC, NCCLS broth microdilution; type: cell-based; conditions: Enterococcus faecium (51559), vancomycin resistant
[14] = system: Staphylococcus aureus (33591) (methicillin resistant); assay: MIC, NCCLS broth microdilution; type: cell-based; conditions: Staphylococcus aureus (33591), methicillin resistant (MRSA)
[15] = system: Candida albicans (90028); assay: MIC, antifungal assay; type: cell-based
[16] = system: Candida parapsilosis (10232); assay: MIC, antifungal assay; type: cell-based; conditions: Candida parapsilosis (10232)
[17] = system: Cryptococcus neoformans (90112); assay: MIC, antifungal assay; type: cell-based; conditions: Cryptococcus neoformans (90112)
[18] = system: Haemophilus influenzae (49247); assay: MIC, NCCLS broth microdilution; type: cell-based; conditions: Haemophilus influenzae (49247)
[19] = system: AATACT; assay: DNase I footprint titration, AATACT site; type: binding; conditions: equilibrium association constant Ka; pH 7.0, 22° C.
[20] = system: ATTACT; assay: DNase I footprint titration, ATTACT site; type: binding; conditions: equilibrium association constant Ka; pH 7.0, 22° C.
[21] = system: AGTACT; assay: DNase I footprint titration, AGTACT site; type: binding; conditions: equilibrium association constant Ka; pH 7.0, 22° C.
[22] = system: ACTACT; assay: DNase I footprint titration, ACTACT site; type: binding; conditions: equilibrium association constant Ka; pH 7.0, 22° C.

In the case of `CN=C(N)CCNC(=O)c1cc(NC(=O)c2cc(NC(=O)c3cc(NC(=O)c4nsc(Cl)c4Cl)cn3C)cn2C)cn1C` [V-pp], the MIC [1] is reported as 0.5 µg/mL (≈ 0.772 µM), the MIC ([2]; Bacillus cereus (11778)) is reported as 0.5 µg/mL (≈ 0.772 µM) and the MIC [3] is reported as 4 µg/mL (≈ 6.18 µM). For the same molecule, the MIC [4] was 32 µg/mL (≈ 49.4 µM).

`CN(C)CCCNC(=O)c1cc(NC(=O)c2cc(NC(=O)c3cc(NC(=O)c4nsc(NCCCN(C)C)c4Cl)cn3C)cn2C)cn1C` [V-q] showed an MIC [1] of 8 to 16 µg/mL, an MIC ([2]; Bacillus cereus (11778)) of 4 to 8 µg/mL and an MIC [5] of 8 µg/mL (≈ 11.2 µM). It also gave an MIC [6] of 1 µg/mL (≈ 1.4 µM), an MIC [4] of over 128 µg/mL and an MIC [7] of over 128 µg/mL. It also gave an MIC [8] of 4 µg/mL (≈ 5.6 µM), an MIC [9] of 4 µg/mL (≈ 5.6 µM) and an MIC [10] of 1 µg/mL (≈ 1.4 µM). For the same molecule, the MIC [11] was 2 µg/mL (≈ 2.8 µM), the MIC [12] was 1 µg/mL (≈ 1.4 µM) and the MIC [13] was 4 µg/mL (≈ 5.6 µM). The MIC [14] was 16 µg/mL (≈ 22.4 µM).

`Cn1cc(NC(=O)c2cc(NC(=O)c3cc(NC(=O)c4nsc(NCCN)c4Cl)cn3C)cn2C)cc1C(=O)NCCC1=NCCN1` [V-qq] was tested, and the MIC [1] was 0.25 µg/mL (≈ 0.366 µM), the MIC ([2]; Bacillus cereus (11778)) was 0.25 µg/mL (≈ 0.366 µM) and the MIC [3] was 32 µg/mL (≈ 46.8 µM). For the same molecule, the MIC [4] was 32 µg/mL (≈ 46.8 µM).

Molecule `CCN(CC)CCNC(=O)CCNC(=O)c1cc(NC(=O)c2cc(NC(=O)c3nsc(NCCN(CC)CC)c3Cl)cn2C)cn1C` [V-r] has an MIC [1] of over 128 µg/mL, an MIC ([2]; Bacillus cereus (11778)) of over 128 µg/mL and an MIC [15] of over 128 µg/mL. For the same molecule, the MIC [16] was 2 µg/mL (≈ 2.89 µM), the MIC [3] was over 128 µg/mL and the MIC [6] was 16 µg/mL (≈ 23.1 µM). The MIC [4] was over 128 µg/mL, the MIC [17] was 16 µg/mL (≈ 23.1 µM) and the MIC [11] was 16 µg/mL (≈ 23.1 µM). For the same molecule, the MIC [18] was over 128 µg/mL.

`COCCCNc1snc(C(=O)Nc2cc(C(=O)Nc3cc(C(=O)Nc4cc(C(=O)NCCN5CCOCC5)n(C)c4)n(C)c3)n(C)c2)c1Cl` [V-rr] gave an MIC [1] of 1 µg/mL (≈ 1.37 µM), an MIC ([2]; Bacillus cereus (11778)) of 0.5 µg/mL (≈ 0.686 µM) and an MIC [3] of 32 µg/mL (≈ 43.9 µM). It also gave an MIC [4] of 32 µg/mL (≈ 43.9 µM).

With `Cn1cc(NC(=O)c2cc(NC(=O)c3cc(NC(=O)c4nsc(NCC5CC5)c4Cl)cn3C)cn2C)cc1C(=O)NCCN1CCOCC1` [V-tt] the MIC [1] was 0.5 µg/mL (≈ 0.703 µM), the MIC ([2]; Bacillus cereus (11778)) was 0.25 µg/mL (≈ 0.351 µM) and the MIC [3] was 32 µg/mL (≈ 45 µM). The MIC [4] was 32 µg/mL (≈ 45 µM).

With `CN(C)CCCNC(=O)CCNC(=O)c1cc(NC(=O)c2cc(NC(=O)c3cc(NC(=O)c4nsc(Cl)c4Cl)cn3C)cn2C)cn1C` [V-u] the “Binding Constant, sequence AATACT” value [19] was 1e+08 M⁻¹, the “Binding Constant, sequence ATTACT” value [20] was 5e+08 M⁻¹ and the “Binding Constant, sequence AGTACT” value [21] was 1e+11 M⁻¹. For the same molecule, the “Binding Constant, sequence ACTACT” value [22] was 1e+09 M⁻¹.

Molecule `Cn1cc(NC(=O)c2cc(NC(=O)c3cc(NC(=O)c4nsc(Cl)c4Cl)cn3C)cn2C)cc1C(=O)NCCC1=NCCN1` [V-uu] has an MIC [1] of 0.25 µg/mL (≈ 0.379 µM) and an MIC ([2]; Bacillus cereus (11778)) of 1 µg/mL (≈ 1.52 µM).

`CN(C)CCCNC(=O)c1cc(NC(=O)c2cc(NC(=O)c3cc(NC(=O)c4nsc(N5CCCCC5)c4Cl)cn3C)cn2C)cn1C` [V-w] gave an MIC ([2]; Bacillus cereus, strain not stated) of 0.5 µg/mL (≈ 0.717 µM).

With `CN(C)CCCNC(=O)CCNC(=O)c1cc(NC(=O)c2cc(NC(=O)c3cc(NC(=O)c4nc(NC(=O)CCCNC(=O)c5cc(NC(=O)c6cc(NC(=O)c7cc(NC(=O)c8nsc(Cl)c8Cl)cn7C)cn6C)cn5C)cn4C)cn3C)cn2C)cn1C` [VI-a] the “Binding Constant, sequence AATACT” value [19] was 2e+09 M⁻¹, the “Binding Constant, sequence ATTACT” value [20] was 2e+09 M⁻¹ and the “Binding Constant, sequence AGTACT” value [21] was 2e+10 M⁻¹. For the same molecule, the “Binding Constant, sequence ACTACT” value [22] was 2e+09 M⁻¹.

With `CN(C)CCCNC(=O)CCNC(=O)c1cc(NC(=O)c2cc(NC(=O)c3cc(NC(=O)c4nc(NC(=O)CCCNC(=O)c5cc(NC(=O)c6cc(NC(=O)c7cc(NC(=O)c8nsc(NCCCN(C)C)c8Cl)cn7C)cn6C)cn5C)cn4C)cn3C)cn2C)cn1C` [VI-b] the “Binding Constant, sequence AATACT” value [19] was 7e+09 M⁻¹, the “Binding Constant, sequence ATTACT” value [20] was 7e+09 M⁻¹ and the “Binding Constant, sequence AGTACT” value [21] was 1e+11 M⁻¹. The “Binding Constant, sequence ACTACT” value [22] was 7e+09 M⁻¹.

Source: patent US20020065227A1, “Charged compounds comprising a nucleic acid binding moiety and uses therefor” (priority 2000, published 2002)
